# Data reported in patent publication US12692283B2, “Lignan derivative, preparation method therefor and use thereof” (SHANGHAI INSTITUTE OF MATERIA MEDICA, CHINESE ACADEMY OF …, priority 2021, dated 2026).
# What was measured:
# Type in all cases: in vivo, mouse
# [1] = tested on: mice with liver fibrosis induced by carbon tetrachloride; assay: Efficacy in mice with carbon tetrachloride-induced liver fibrosis; conditions: intragastric 1 mg/kg/day and 3 mg/kg/day for 3 weeks
# Experimental: Experimental animals: 40 male C57 mice, 8 weeks old.
# Modeling and administration: 400 μL of carbon tetrachloride (CCl4) was added to 3.6 mL of olive oil, mixed well, and then injected intraperitoneally at 0.1 mL/20 g, twice a week for six weeks. Six weeks later, 30 mice were divided into 3 groups, with 10 mice in each group. They were given physiological saline by gavage, 1 mg/kg A5 and 3 mg/kg A5. In addition, 10 mice that were not induced were given physiological saline as a control group. After 3 weeks of continuous administration, the mice were sacrificed, and the livers were removed, weighed, fixed and embedded, and the remaining liver tissue was cryopreserved for detection of hydroxyproline content.
# Masson staining of mouse liver tissue: The mouse liver tissue was paraffin-embedded according to conventional methods, and sections were subjected to Masson staining. The specific procedures were as follows. […]
# Detection of hydroxyproline content in mouse liver tissue: A hydroxyproline detection kit (Nanjing Jiancheng Bioengineering Institute) was used. […] Absorbance values of the supernatant at a wavelength of 550 nm were determined using a microplate reader. The hydroxyproline content per 100 mg of liver tissue was then calculated.
# [2] = tested on: mice with oxazolone-induced enteritis; assay: Efficacy in mice with oxazolone-induced inflammatory bowel disease; conditions: intragastric 1 mg/kg/day
# Experimental: Experimental animals: 30 male C57 mice, 8 weeks old.
# Modeling and administration: 3% Oxazolone was dissolved in the solvent (acetone:olive oil, 1:4). After the mouse was anesthetized, the hair on the shoulder of the mouse was removed, and then 150 μL of Oxazolone with a mass fraction of 3% was added dropwise. On the 8th day after treatment, 1% Oxazolone was dissolved in a solvent (ethanol:sterilized water, 1:1). After the mice were anesthetized, 150 μL of 1% Oxazolone was administered rectally to create a model. The modeling mice were divided into two groups, with 10 mice in each group. One group was given compound A5 by gavage at 1 mg/kg/day, one group was given physiological saline, and the other group of 10 mice without modeling was used as a control group. Starting from the day of modeling, the weight of the mice was recorded every day. The feces of the mice were collected on the third day after rectal administration to observe the softness of the feces and whether there was bleeding. […]
# Mouse enteritis disease activity index score: Mice were scored based on the degree of weight loss of the mouse (0: normal; 1:1-5%; 2:6-10%; 3:11-18%; 4: >18%), the degree of the softness of the feces (0: normal; 2: soft; 4: diarrhea), and the degree of feces bleeding (0: normal; 2: occult blood; 4: bloody stool), then each score was added and divide by three. […]
# [3] = Oral pharmacokinetics of phosphate prodrug A5 in ICR mice (plasma and tissues); conditions: oral 30 mg/kg
# Experimental: Compound A5 (30 mg/kg) was administered orally to overnight fasted ICR mice (male, n=3/time point). The mice were fed 2 hours after administration. Samples were collected before administration and 1 h, 2 h, 4 h, and 8 h after administration. Blood was collected in centrifuge tubes pretreated with heparin sodium and bis(4-nitrophenyl)phosphate (BNPP). After centrifugation at 11,000 rpm for 5 min at 4° C., plasma was obtained and stored at −80° C. Next, 100 […] of plasma sample, precipitated, vortexed for 1 min, and centrifuged (11,000 rpm) for 5 min. A mixture of 20 […] of methanol/acetonitrile (1:1, v/v) was taken to analyze the concentrations of compound A5 and compound A4-1a by LC-MS/MS. Heart (blood emptying), liver, and lung tissues were stored at −80° C. until analysis. After removal of contents, the duodenum and colon were quickly washed with cold saline containing BNPP and stored at −80° C. until analysis. […] 20 μL of the supernatant was redissolved in 20 μL of ACN/H2O (1:1, v/v), and the concentrations of compound A5 and compound A4-1a were analyzed by LC-MS/MS.
structure (smiles),measurement,setting,value
"COc1ccc(C[C@H]2COC(=O)[C@]2(C)Cc2ccc(OP(=O)(O)O)c(OC)c2)cc1OC [Compound A5, 4-(((3R,4R)-4-(3,4-dimethoxybenzyl)-3-methyl-2-oxotetrahydrofuran-3-yl)methyl)-2-methoxyphenyl dihydrogen phosphate]",hydroxyproline (HYP) content in liver tissue,[1],significantly reduce the increase in hydroxyproline content
same,positive rate of Masson staining in liver (degree of liver fibrosis),[1],significantly reduce the degree of liver fibrosis
same,colon pathology score,[2],significantly reduce the colon pathology score
same,disease activity index of enteritis,[2],significantly reduce the disease activity index
same,drug concentration in plasma and various tissues,[3],good drug concentration in plasma and various tissues
